Legend:
cortical neurons [1] = assay: Neurotrophic assay, neurite outgrowth in cortical neuronal cultures; format: cell-based, Wistar rats; conditions: 200 nmol/l; 24 h exposure
Excerpt: The neurotrophic effect i.e. the neurite outgrowth with flufenazine was investigated on both cortical and spinal cord neuronal cultures according to the protocol described by Lucius R, Sievers J. in Postnatal retinal ganglion cells in vitro: protection against reactive oxygen species (ROS)-induced axonal degeneration by cocultured astrocytes Brain Res Dec. 16, 1996;743(1-2):56-62.
(§1) Two types of primary neuronal cell cultures i.e. cortical and spinal cord neurons are isolated from 15-17 days old foetuses of female Wistar rats and cultured in neurobasal/B27 medium until cell differentiation.
The ability of flufenazine to induce neurite outgrowth is investigated both in cortical and spinal cord neuronal cultures after 24 h exposure to flufenazine.
The neurite length as well as the percentage of cells with neurites are quantified by careful microscopic inspection. On cortex neurons type, the results are depicted in FIG. 4; the cortex neurotrophic effect of flufenazine (200 nmol/l) is expressed as an increase of 30% on neurites length compared to the neurites length in the control cortex neurons

cortical neurons [2] = assay: Glutamic acid intoxication assay (LDH release); format: cell-based, Wistar rats
Experimental: Further studies were conducted on cortical neurons intoxicated with glutamic acid according to the protocol described by Nilsen J. and Brinton R D in Impact of progestins on oestrogen-induced neuroprotection:synergy by progesterone and 19-norprogesterone and antagonism by medoxyprogesterone acetate. Endocrinology 143:205-212 2002.
as §1
The neuroprotective activity is assessed on glu-induced cortical neurons loss. The process of death is initiated by 10 min treatment of neuron cell cultures with neurotoxic concentration of glutamic acid at 100 micromol/l.
The ability of flufenazine to reverse the death process is achieved by subsequent exposure of cells to flufenazine concentrations of 100 and 200 nmol/l. The quantity of LDH released is used to estimate the degree of intoxication and the decrease of quantity released is proportional at cellular resistance to Glu neurotoxicity.
the percentage of neuronal survival obtained when intoxicated cells cultures are incubated with flufenazine is compared to cell cultures without flufenazine.

[3] = test system: spinal cord motoneuron cell culture; assay: Neuronal survival and proliferation of spinal cord motoneuron cell culture; format: cell-based, Wistar rats; conditions: 50, 100, 250 nmol/l; counted at 2-120 hours; compared to cultures with BDNF alone
Experimental: In vitro studies were first conducted on spinal cord motoneurons which are involved in peripheral neuropathy diseases as for example amyotrophic lateral sclerose (ALS) according to protocols described by Martinou J. C., Martinou I., Kato A. C. in Cholinergic differentiation factor (CDF/LIF) promotes survival of isolated rat embryonic motoneurons in vitro.
Cells cultures are incubated with different Fluphenazine N-Mustard dihydrochloride concentrations: 50, 100, 250 nmol/l.
Neuronal survival is then monitored at different time points; 2, 24, 48, 72, 96, 120 hours by counting the number of cells under microscope.
the percentage of neuronal survival obtained when cells cultures are incubated with flufenazine is compared to cell cultures incubated alone only with 50 microgram's of brain derived neurotrophic factor (BDNF).

SOD mice = assay: Survival rate of SOD mice after oral administration; format: in vivo
Experimental: In vivo studies were conducted on transgenic animals with ALS causing mutations, a model for neurodegenerative diseases according to protocols described by Gurney Me, Pu H, Chiu Ay, Dal Canto Mc, Polchow Cy, Alexander Dd, Caliendo J, Hentati A, Kwon Yw, Deng Hx, et al. in Motor neuron degeneration in mice that express a human Cu,Zn superoxide dismutase mutation. Science (1994) 264:1772-1775; and by Mohajeri Mh, Figlewicz Da, Bohn Mc in Selective loss of alpha motoneurons innervating the medial gastrocnemius muscle in a model of amyotrophic lateral sclerosis. Exp. Neurol. (1998) 150:329-336.
Mice are used at 4 months of age i.e. about 2 weeks before the appearance of the first symptoms.
They are genotyped for SOD1 gene using PCR method.
Animals are assigned into four groups to receive a daily oral administration of 1)saline as control, 2) 0.1 mg/kg, 3) 1 mg/kg, 4) 10 mg/kg of flufenazine, until death by weakness and paralysis occurs.
Survival rate was recorded on a daily basis.

mesencephalic neurons = conditions: 250 nmol/l
Experimental: Cortical neurons are involved in Alzheimer's disease and also in mesencephale neurons or dopaminergic neurons which are themselves involved in Parkinson's disease. (see also protocol described by Y. Mitsumotol, A. Watanabe, T. Miyauchi, F. Jimma, and T. Moriizumi in Stimulation of the regrowth of MPP+/damaged dopaminergic fibers by the treatment of mesencephalic cultures with basigin; J Neural Transm (2001) 108: 1127-1134).
The neuroprotective activity is assessed on MPP+ induced mesencephalic neuron loss with flufenazine concentration of 250 nmol/l
The cells are intoxicated by 2 micromol of MPP+ as neurotoxic during 24 h. The cell culture is then treated with 250 nm/l of flufenazine.
The percentage of mesencephalic neuronal survival obtained when intoxicated cells cultures are incubated with flufenazine is compared to cell cultures without flufenazine.

In the case of `OCCN1CCN(CCCN2c3ccccc3Sc3ccc(C(F)(F)F)cc32)CC1` [flufenazine, 4-[3-[2-(trifluoromethyl)-10H-phenothiazin-10-yl]propyl]-1-pyperazine-ethanol], the “increase on neurites length compared to control cortex neurons” value (cortical neurons [1]) was 30%, the “increase of percentage of neuronal survival after glutamic acid intoxication” value (cortical neurons [2]; 200 nmol/l, after 10 min glutamic acid 100 micromol/l, compared to cultures without flufenazine) was 10% and the “effect on cell survival in the absence of neurotoxic compound” value (cortical neurons [2]; no glutamic acid, FIG. 2 left part) was “no or very slight effect”. The “percentage of neuronal survival” value [3] was “increase regularly from 48 h until 120 h”, the “survival of SOD mice compared to saline treated group” value (SOD mice; 0.1 mg/kg daily oral) was “enhanced the survival” and the “survival of SOD mice compared to saline treated group” value (SOD mice; 1 mg/kg daily oral) was “enhanced the survival”. The “survival of SOD mice compared to saline treated group” value (SOD mice; 10 mg/kg daily oral) was “adverse effect and induced a leftward shift in the survival curve”, the “neurite expansion versus control neurons” value (mesencephalic neurons) was “longer neurite expansion than in control neurons” and the “reversal of MPP+ induced neuronal loss” value (mesencephalic neurons) was “reverses MPP+ induced neuronal loss to the same extent as Riluzole”. For the same compound, the “increase of TH positives cells” value (mesencephalic neurons; after 2 micromol MPP+ during 24 h, observed after 48 hours) was 30%.
